The nature of the data set: refractive index (Na D-line) (dimensionless); wn = mass fraction of the nth substance listed. To be noted: 298.15 K, 101 kPa, Liquid, Standard Abbe refractometry.

The structures appear in SMILES notation. “And” between values parts separate entries of the source, which are not always exact repeats. Identical values can stand only once. ± gives the expanded uncertainty stated by the source.

For `CC(C)(C)O` [2-methylpropan-2-ol] + O, the refractive index (w1 = 0.0971) was 1.3426 ± 0.0008.
For `O=C([O-])[C@H](O)[C@@H](O)C(=O)[O-].[Na+].[Na+]` [disodium L-tartrate] + O, the refractive index runs as follows: (w1 = 0.0401) 1.3393 ± 0.0008; (w1 = 0.0452) 1.3404 ± 0.0008; (w1 = 0.0472) 1.34 ± 0.0008 and 1.3403 ± 0.0008.
Regarding `CCC(C)O` (stereo unspecified) [butan-2-ol] + O, for the setting “w1 = 0.0982”, the refractive index came out at 1.3431 ± 0.0008.
For the compound `CCCO` [propan-1-ol] + O, the refractive index (w1 = 0.0949) was 1.3413 ± 0.0008.

As a reminder, the refractive index is the speed of light in vacuum divided by its phase velocity in the sample.

Values taken from the NIST ThermoML archive (doi:10.1021/je300533r).
